Assay results taken from patent publication US20250360105A1, “USE OF ERGOTHIONEINE FOR ANTI-AGING” (NANJING NUTRABUILDING BIO-TECH CO., LTD., priority 2022, published 2025).

Columns and labels:
[1] = tested on: vascular and intracellular adhesion molecules in endothelial cells; details: Anticoli et al. 2010; cited from earlier work
[2] = tested on: progerin; experiment: Taqman quantitative real-time PCR of progerin mRNA in coronary artery endothelial cells of aging mice; type: in vivo; details: 56-week-old mice treated with EGT every day, compared to without EGT treated; FIG. 1
Protocol: (§1) 18 […]/6 male mice aged about 8 weeks, were randomly assigned to three study groups (GA, GB, GC). The total experimental time was 56 weeks, and the control group was consisted of 12 animals, and all of the animals were maintained in an animal facility room under controlled environmental conditions (22±1° C., 12 h-light/12 h dark cycle, free access to food and water). All procedures were carried out in accordance with institutional policies on experimental animal handling. Treatment details of the individual study groups were: Group A (GA): euthanized at the age of 10 weeks; Group B (GB): euthanized at the age of 56 weeks without EGT treated; Group C (GC): euthanized at the age of 56 weeks with EGT treated every day. For all the euthanized mice, formalin-fixed paraffin embedded 3 μm sections were prepared from the tissues of coronary artery, and were snap-frozen and stored at -80° C. Taqman quantitative real-time PCR was used for detection of progerin mRNA. Messenger RNA was extracted using RNeasy Mini Kit Plus (Qiagen, Valencia, CA). The Taqman probe was as described by Rodriguez et al. (Rodriguez, S., et al., Increased expression of the Hutchinson Gilford progeria syndrome truncated lamin A transcript during cell aging. 2009. 17(7): p. 928-937). The forward primer was [NT] ID NO: 1), and the reverse primer was [NT] ID NO: 2).

[3] = tested on: pro-inflammatory cytokines IL-1α, IL-1β, IL-6, and TNF-α; experiment: Quantification of pro-inflammatory cytokines in serum of aging mice using ELISA Array kit; type: in vivo; details: serum of 56-week-old mice, EGT compared to without EGT treatment, FIG. 2
Protocol: 18 […]/6 male mice aged about 8 weeks, were randomly assigned to three study groups (GA, GB, GC). The total experimental time was 56 weeks, and the control group was consisted of 12 animals, and all of the animals were maintained in an animal facility room under controlled environmental conditions (22±1° C., 12 h-light/12 h dark cycle, free access to food and water). All procedures were carried out in accordance with institutional policies on experimental animal handling. Treatment details of the individual study groups were: Group A (GA): euthanized at the age of 10 weeks; Group B (GB): euthanized at the age of 56 weeks without EGT treated; Group C (GC): euthanized at the age of 56 weeks with EGT treated every day.

[4] = tested on: lamin A; experiment: Taqman quantitative real-time PCR of lamin A mRNA in coronary artery endothelial cells of aging mice; type: in vivo; details: 56-week-old mice treated with EGT every day, compared to without EGT treated; FIG. 1
Protocol: as §1

[5] = tested on: lamin C; experiment: Taqman quantitative real-time PCR of lamin C mRNA in coronary artery endothelial cells of aging mice; type: in vivo; details: 56-week-old mice treated with EGT every day, compared to without EGT treated; FIG. 1

For `C[N+](C)(C)[C@@H](Cc1c[nH]c(=S)[nH]1)C(=O)[O-]` [EGT, Ergothioneine], the “IL-1β-induced expression of vascular and intracellular adhesion molecules” value [1] is listed as “inhibit”, the “mRNA expression of progerin in coronary artery endothelial cells” value [2] is listed as “obvious decrease” and the “pro-inflammatory cytokines (IL-1α, IL-1β, IL-6, TNF-α)” value [3] is listed as “obvious decrease”. The “mRNA of lamin A in coronary artery endothelial cells” value [4] was “decrease” and the “mRNA of lamin C in coronary artery endothelial cells” value [5] was “decrease”.
